Results as given in patent US7943628B2, “Pyrimidine derivatives” (Pfizer Limited, priority 2005, dated 2011).

Target: T1, histamine H4 receptor (Homo sapiens, UniProt Q9H3N8)
T1 construct: expressed in transfected cells; host or cells: CHO cells
Experiment: H4 binding, method 1 ([3H]-histamine filtration binding on CHO cell membranes)
Conditions: for Ki: H4 binding, method 1, Ki calculated from IC50 (Cheng-Prussoff); for inhibition at 10 µM: 1.5 h
Summary of the method: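 Membranes from CHO cells expressing human H4 receptor (20-35 μg/well) incubated 90 min at room temperature with 3 nM [3H]-histamine in 50 mM Tris-HCl pH 7.4, ± competitor. Bound label separated by filtration on PEI-soaked GF/B filters and counted by scintillation; non-specific binding with 10 μM JNJ7777120.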

| Compound | Ki [nM] | further results |
| --- | --- | --- |
| CC(C)CNc1cc(N2C[C@H]3CNC[C@H]3C2)nc(N)n1 [Example 217, 6-[(3aR*,6aS*)-Hexahydropyrrolo[3,4-c]pyrrol-2(1H)-yl]-N^4-isobutylpyrimidine-2,4-diamine] | 80.6 | – |
| CC(C)(C)CNc1cc(NC2C3CNCC32)nc(N)n1 (stereo not drawn) [Example 222, N^4-[(1R*,5S*,6s*)-3-Azabicyclo[3.1.0]hex-6-yl]-N^6-(2,2-dimethylpropyl)pyrimidine-2,4,6-triamine] | 95.2 | – |
| CN1CCN(c2cc(NC(C)(C)C)nc(N)n2)CC1 [Example 223, N^4-(tert-Butyl)-6-(4-methylpiperazin-1-yl)pyrimidine-2,4-diamine] | – | inhibition at 10 µM: 13% |
| Nc1nc(NC2CCC2)cc(N2C[C@H]3CCCN[C@H]3C2)n1 [Example 230, N^4-Cyclobutyl-6-[(4aR,7aR)-octahydro-6H-pyrrolo[3,4-b]pyridin-6-yl]pyrimidine-2,4-diamine] | 127 | – |
| CC(C)Nc1cc(N2CCC3NCCC3C2)nc(N)n1 (stereo not shown) [Example 231, N^4-Isopropyl-6-(octahydro-5H-pyrrolo[3,2-c]pyridin-5-yl)pyrimidine-2,4-diamine] | 131 | – |
| CC(C)Nc1cc(N2C[C@H]3CNC[C@H]3C2)nc(N)n1 [Example 238, 6-[(3aR*,6aS*)-Hexahydropyrrolo[3,4-c]pyrrol-2(1H )-yl]-N^4-isopropylpyrimidine-2,4-diamine] | 222 | – |
| CC(C)Nc1cc(N2C[C@H]3CN(C)C[C@H]3C2)nc(N)n1 [Example 241, N^4-Isopropyl-6-[(3aR*,6aS*)-5-methylhexahydropyrrolo[3,4-c]pyrrol-2(1H)-yl]pyrimidine-2,4-diamine] | – | Method 1, % at 1 μM (at 1 μM): 45% at 1 μM |
| CC1(N)CCN(c2cc(NCC3CC3)nc(N)n2)C1 (stereo not shown) [Example 246, 6-(3-Amino-3-methylpyrrolidin-1-yl)-N^4-(cyclopropylmethyl)pyrimidine-2,4-diamine] | 301 | – |
| C[C@@H]1CN(c2cc(NCc3ccc(F)cc3)nc(N)n2)CCN1 [Example 247, N^4-(4-Fluorobenzyl)-6-[(3R)-3-methylpiperazin-1-yl]pyrimidine-2,4-diamine] | 312 | – |
| CNc1cc(N2CC(C)(NC)C2)nc(N)n1 [Example 248, N^4-Methyl-6-[3-methyl-3-(methylamino)azetidin-1-yl]pyrimidine-2,4-diamine] | 329 | – |
| CN[C@@H]1CCN(c2cc(NCc3cccc(F)c3)nc(N)n2)C1 [Example 249, N^4-(3-Fluorobenzyl)-6-[(3R)-3-(methylamino)pyrrolidin-1-yl]pyrimidine-2,4-diamine] | 343 | – |
| CNC1CCCN(c2cc(NCC(C)(C)C)nc(N)n2)C1 (stereo not shown) [Example 250, N^4-(2,2-Dimethylpropyl)-6-[3-(methylamino)piperidin-1-yl]pyrimidine-2,4-diamine] | 353 | – |
| C[C@H]1CN(c2cc(NCc3ccccc3)nc(N)n2)CCN1 [Example 251, N^4-Benzyl-6-[(3S)-3-methylpiperazin-1-yl]pyrimidine-2,4-diamine] | 355 | – |
| C[C@H]1CN(c2cc(NC3CC3)ncn2)CCN1 [Example 252, N-Cyclopropyl-6-[(3S)-3-methylpiperazin-1-yl]pyrimidin-4-amine] | 370 | – |
| CN[C@@H]1CCN(c2cc(NCc3ccccc3F)nc(N)n2)C1 [Example 253, N^4-(2-Fluorobenzyl)-6-[(3R)-3-(methylamino)pyrrolidin-1-yl]pyrimidine-2,4-diamine] | 380 | – |
| CN[C@@H]1CCN(c2cc(NCc3ccccc3)nc(N)n2)C1 [Example 254, N^4-Benzyl-6-[(3R)-3-(methylamino)pyrrolidin-1-yl]pyrimidine-2,4-diamine] | 380 | – |
| Nc1nc(NCc2cccc(F)c2F)cc(N2CC[C@@H](N)C2)n1 [Example 255, 6-[(3R)-3-Aminopyrrolidin-1-yl]-N^4-(2,3-difluorobenzyl)pyrimidine-2,4-diamine] | 452 | – |
| CN[C@@H]1CCN(c2cc(NC3CC3)nc(N)n2)C1 [Example 256, N^4-Cyclopropyl-6-[(3R)-3-(methylamino)pyrrolidin-1-yl]pyrimidine-2,4-diamine] | 501 | – |
| CCNc1cc(N2CC(C)(NC)C2)nc(N)n1 [Example 257, N^4-Ethyl-6-[3-methyl-3-(methylamino)azetidin-1-yl]pyrimidine-2,4-diamine] | – | inhibition at 10 µM: 100% |
| CCCNc1cc(N2CCN[C@@H](C)C2)ncn1 [Example 258, 6-[(3S)-3-Methylpiperazin-1-yl]-N-propylpyrimidin-4-amine] | 509 | – |
| C[C@@H]1CN(c2cc(NCc3ccccc3)nc(N)n2)CCN1 [Example 259, N^4-Benzyl-6-[(3R)-3-methylpiperazin-1-yl]pyrimidine-2,4-diamine] | 577 | – |
| CC(C)(C)CNc1cc(N2CCN(C3CCCCC3)CC2)ncn1 [Example 260, 6-(4-Cyclohexylpiperazin-1-yl)-N-(2,2-dimethylpropyl)pyrimidin-4-amine] | – | inhibition at 10 µM: 100% |
| CNC1(C)CN(c2cc(NC(C)C)ncn2)C1 [Example 261, N-Isopropyl-6-[3-methyl-3-(methylamino)azetidin-1-yl]pyrimidin-4-amine] | 617 | – |
| CNc1cc(N2CC[C@@H](NC)C2)ncn1 [Example 262, N-Methyl-6-[(3R)-3-(methylamino)pyrrolidin-1-yl]pyrimidin-4-amine] | 623 | – |

The next lines start with results.

| Ki [nM] | Compound | further results |
| --- | --- | --- |
| 80.7 | Nc1nc(NCC2CCCC2)cc(N2CC[C@@H](N)C2)n1 [Example 218, 6-[(3R)-3-Aminopyrrolidin-1-yl]-N^4-(cyclopentylmethyl)pyrimidine-2,4-diamine] | – |
| 82.3 | CCCNc1cc(N2CC[C@@H](N)C2)nc(N)n1 [Example 219, 6-[(3R)-3-Aminopyrrolidin-1-yl]-N^4-propylpyrimidine-2,4-diamine] | – |
| 88 | NCCNc1cc(NCC2CC2)ncn1 [Example 220, N-(2-Aminoethyl)-N′-(cyclopropylmethyl)pyrimidine-4,6-diamine] | – |
| 90.3 | CNc1cc(N2CC[C@@H](NC)C2)nc(N)n1 [Example 221, N^4-Methyl-6-[(3R)-3-(methylamino)pyrrolidin-1-yl]pyrimidine-2,4-diamine] | – |
| 101 | CN1CCCN(c2cc(NC3CC3)ncn2)CC1 [Example 224, N-Cyclopropyl-6-(4-methyl-1,4-diazepan-1-yl)pyrimidin-4-amine] | – |
| 102 | CC(C)(C)CCNc1cc(N2CC[C@@H](N)C2)nc(N)n1 [Example 225, 6-[(3R)-3-Aminopyrrolidin-1-yl]-N^4-(3,3-dimethylbutyl)pyrimidine-2,4-diamine] | – |
| 113 | CC(C)NC1CN(c2cc(NCC(C)(C)C)ncn2)C1 [Example 226, N-(2,2-Dimethylpropyl)-6-[3-(isopropylamino)azetidin-1-yl]pyrimidin-4-amine] | – |
| 115 | CNCC1CN(c2cc(NCC3CC3)nc(N)n2)C1 [Example 227, N^4-(Cyclopropylmethyl)-6-{3-[(methylamino)methyl]azetidin-1-yl}pyrimidine-2,4-diamine] | – |
| 117 | C[C@H]1CN(c2cc(NCc3cccc(F)c3)nc(N)n2)CCN1 [Example 228, N^4-(3-Fluorobenzyl)-6-[(3S)-3-methylpiperazin-1-yl]pyrimidine-2,4-diamine] | – |
| 127 | CC(C)CNc1cc(N2CCC(N)CC2)nc(N)n1 [Example 229, 6-(4-Aminopiperidin-1-yl)-N^4-isobutylpyrimidine-2,4-diamine] | – |
| 13.9 | CCCNc1cc(N2CC(N)C2)nc(N)n1 [Example 232, 6-(3-Aminoazetidin-1-yl)-N^4-propylpyrimidine-2,4-diamine] | – |
| 30.4 | CNC1CN(c2cc(NCc3ccc(F)c(F)c3)nc(N)n2)C1 [Example 233, N^4-(3,4-Difluorobenzyl)-6-[3-(methylamino)azetidin-1-yl]pyrimidine-2,4-diamine] | – |
| 177 | CC(C)Nc1cc(N2CCC(N)CC2)nc(N)n1 [Example 234, 6-(4-Aminopiperidin-1-yl)-N^4-isopropylpyrimidine-2,4-diamine] | – |
| 198 | CN[C@@H]1CCN(c2cc(NCCC(F)(F)F)nc(N)n2)C1 [Example 235, 6-[(3R)-3-(Methylamino)pyrrolidin-1-yl]-N^4-(3,3,3-trifluoropropyl)pyrimidine-2,4-diamine] | – |
| 205 | CNC1CN(c2cc(N3CC(F)(F)C3)nc(N)n2)C1 [Example 236, 4-(3,3-Difluoroazetidin-1-yl)-6-[3-(methylamino)azetidin-1-yl]pyrimidin-2-amine] | – |
| 211 | C[C@@H]1CN(c2cc(NCc3ccccc3F)nc(N)n2)CCN1 [Example 237, N^4-(2-Fluorobenzyl)-6-[(3R)-3-methylpiperazin-1-yl]pyrimidine-2,4-diamine] | – |
| 235 | CN1CCCN(c2cc(NCC(C)(C)C)ncn2)CC1 [Example 239, N-(2,2-Dimethylpropyl)-6-(4-methyl-1,4-diazepan-1-yl)pyrimidin-4-amine] | – |
| 238 | C[C@H]1CN(c2cc(NCc3ccc(F)cc3)nc(N)n2)CCN1 [Example 240, N^4-(4-Fluorobenzyl)-6-[(3S)-3-methylpiperazin-1-yl]pyrimidine-2,4-diamine] | – |
| 258 | CNC1CN(c2cc(N3CCOC[C@@H]3C)nc(N)n2)C1 [Example 242, 4-[3-(Methylamino)azetidin-1-yl]-6-[(3S)-3-methylmorpholiN^4-yl]pyrimidin-2-amine] | – |
| 266 | CN[C@@H]1CCN(c2cc(NCC3CCC3)nc(N)n2)C1 [Example 243, N^4-(Cyclobutylmethyl)-6-[(3R)-3-(methylamino)pyrrolidin-1-yl]pyrimidine-2,4-diamine] | – |
| 297 | CC(C)(C)CCNc1cc(N2CC(N3CCCC3)C2)ncn1 [Example 244, N-(3,3-Dimethylbutyl)-6-(3-pyrrolidin-1-ylazetidin-1-yl)pyrimidin-4-amine] | – |
| 298 | CN[C@@H]1CCN(c2cc(NCc3cc(F)ccc3F)nc(N)n2)C1 [Example 245, N^4-(2,5-Difluorobenzyl)-6-[(3R)-3-(methylamino)pyrrolidin-1-yl]pyrimidine-2,4-diamine] | – |
